Source: PMC9050848, “Carbamoyl-N-aryl-imine-urea: a new framework to obtain a putative leishmanicidal drug-candidate” (RSC Advances, 2020)

What was measured:
[1] = system: L. amazonensis intracellular amastigotes; experiment: Leishmanicidal activity against intracellular amastigote forms of L. amazonensis in J774.A1 macrophages; format: cell-based
Protocol: Considering that L. amazonensis is one of the causative species of cutaneous leishmaniasis in Brazil,[20] we have investigated the leishmanicidal effect of compounds 9a–e and 10a–e against L. amazonensis amastigotes forms. Initially, all compounds were evaluated at 30 μM. […] Then, they were selected to determine their IC50 value for intracellular amastigote forms of L. amazonensis.
Promastigotes of L. amazonensis (MHOM/BR/77/LTB0016) were obtained from Dr Eduardo Caio Torres dos Santos at Oswaldo Cruz Institute – Fiocruz. Promastigotes of L. braziliensis (MHOM/BR/01/BA788) were obtained from Dr Valéria de Matos Borges at Gonçalo Moniz Research Center – Fiocruz. The parasites were maintained in vitro in Schneider's medium, supplemented with 10% FBS and 2% human urine at 27 °C in BOD incubator.
Initially, compounds 9a–e and 10a–e were evaluated at screening concentration of 30 μM against L. amazonensis, using DMSO 0.03% as vehicle control, since this was the DMSO concentration (vehicle) remaining in each well with the tested compounds. […] Vehicle control used was DMSO 0.1%, since this was the concentration of DMSO (vehicle) existing in each well with the tested substances in the highest concentration used.
To assess the activity of the test derivatives against the amastigote stage of L. amazonensis and L. braziliensis the model of infection in coverglass was realized.[31] The murine macrophages (J774.A1 cell line) were prepared in 24-well cell culture plate (flat bottom, clear, Corning) at 2 × 10^5 adherent cells per well, infected with 2 × 10^6 promastigotes in glass coverslips placed inside 1 mL medium culture. The cultures were cultured or not with the test derivatives or reference drugs, and kept for 24 h at 37 °C, 5% CO2. After 24 h of incubation, the coverslips were washed, stained with Giemsa–May–Grünwald, and intracellular amastigotes were counted in 100 macrophages, using an optical microscope, on the objective of 100×. Thus, during the counting of 100 macrophages, the amount of amastigotes present within these defence cells was also determined. Data obtained from in vitro experiments were expressed as the mean ± S.E.M. of duplicate cultures of representative assays. Statistical differences between the treated and the control groups were evaluated by ANOVA and Dunnett hoc tests. Differences with a p value < 0.05 or lower were considered significant.

[2] = system: J774.A1 cell lines (macrophages); experiment: Cytotoxicity against J774.A1 macrophages, MTT assay; format: cell-based, murine (BALB/c); settings: Mus musculus, J774.A1, 48 h, read-out: IC50 (concentration required to give 50% death of cells)
Protocol: Initially the cytotoxic profile of compounds 9a–e and 10a–e against J774.A1 cell lines (i.e., BALB/c macrophage cell lines) was investigated. Therefore, these cells were exposed to different concentrations (0.1–100 μM) of compounds 9a–e and 10a–e and the cytotoxic effect was measured after 48 h of drug incubation, by using MTT-based assay. The cytotoxicity was expressed as IC50 values (that means the concentration of a drug that kills half of the tested cells in culture). As depicted in Table 1, most compounds have shown low cytotoxic activity with IC50 > 100 μM.
These adherent-phenotype macrophage lines were cultured in Dulbecco's Modified Eagle's medium (DMEM, Sigma) supplemented with 10% FBS at 37 °C with 95% humidity and 5% CO2.
To evaluate the cytotoxic activity against the J774.A1 cell line, the host cells were plated in 96-well cell culture plate (flat bottom, clear, Corning) at 2 × 10^5 cells per well in complete culture medium 10% FBS at 37 °C. After 1 h wells were washed with warm Hank's Balanced Salt solution (HBSS) to remove non-adherent cells, leaving approximately 10^5 adherent macrophages. All cultures were done in DMEM complete supplemented with 10% FBS. The compounds and pentamidine were added at serial concentrations (0.1–100 μM). The cells were also cultured with medium free from compounds or vehicle (basal growth control) or in media with DMSO 0.1% (vehicle control). Positive control (dead cells) was obtained by cellular lysis with 1% of Triton 100× in DMEM complete (because it is a detergent in this concentration, Triton 100× destabilizes the cell membrane of macrophages, causing cell death). The cytotoxicity was evaluated by the MTT assay.[31] This assay consists of indirectly measuring cell viability through the mitochondrial enzymatic activity of macrophages. Viable cells are capable of reducing MTT to formazan. For this, after the incubation of plate for 48 h, 100 μL of MTT solution (0.5 mg mL^−1, in DMEM medium) was added per well, and the plate was incubated for 1 h. Then, the supernatant of each well was retired and was added 150 μL of DMSO. The absorbance was determined at 570 nm in a microplate reader. The cell viability of the cultures treated with the compounds was compared to the death pattern obtained in the control cultures. In the positive control, the cell death was confirmed when the optical density was equal to zero, confirming that the cells were not viable. Data obtained from experiments were expressed as the mean ± standard error of the mean (mean ± S.E.M.) and statistical differences between the treated and the vehicle groups of experiments were evaluated by ANOVA and Dunnett hoc tests.

[3] = Toxicity in treated infected mice (survival, spleen weight, serum biochemistry); format: in vivo; settings: 30 μmol per kg per day × 28 days
Protocol: The survival of BALB/c mice infected with L. amazonensis untreated and treated during 28 days with the daily dose of 30 μmol kg^−1 with meglumine antimoniate, miltefosine and 10e (LASSBio-1736) was analyzed. Animal mortality was not observed for the groups treated with 10e and miltefosine, while 20% of death was identified from the 25th day of treatment with meglumine antimoniate (Fig. 11). After the end of treatment, the animal's toxicity was investigated looking for any alterations on spleen weight and on alanine aminotransferase (ALT), aspartate aminotransferase (AST), creatinine (CREA) and urea serum levels.
This study (protocol number 2013.02) was approved by the Ethics Committee for Animal Experimentation of the Federal University of Alagoas (Brazil). All animals received humane care in compliance with the ‘Principles of laboratory animal care’ formulated by the National Society for Medical Research and the ‘Guide for the care and use of laboratory animals’ prepared by the National Academy of Sciences (Washington, DC). Then, 1 × 10^5 stationary promastigotes (5 days of culture in Schneider's medium) of L. amazonensis were inoculated subcutaneously into the right ear dermis of 6 week-old female BALB/c mice weighing ca. 20 g. and later treated with 10e (i.p.), miltefosine (p.o.) or meglumine antimoniate (i.p.) at 30 μmol kg^−1 × 28 days. The vehicle to solubilize 10e (LASSBio-1736) and standard drugs was Tween 20 (50 μL) and sterile water for injection, which was also administrated by i.p. route in two controls groups (non-infected control and infected control). The lesion size was measured using a paquimeter.[32] The parasite loads of infected ears and draining lymph nodes were determined using a quantitative limiting-dilution assay.[33] Toxicity was also evaluated due to alterations on spleen weight and by biochemistry dosages in plasma, performed according to the manufacturer's instructions (Doles, BRA). Data obtained from experiments were expressed as the mean ± S.E.M. and statistical differences between the treated and the vehicle groups of experiments were evaluated by ANOVA and Dunnett hoc tests.

[4] = L. amazonensis amastigotes, ratio of IC50 values

For O=C(N/N=C/c1ccc(C(F)(F)F)cc1)NNC(=O)c1ccc(Cl)cc1Cl [LASSBio-1736 (10e), 2,4-dichloro-phenylcarbamoyl-N-4-trifluoromethylphenylimine-urea], the “Times less potent than miltefosine” value [1, 4] was roughly 4.0 times, the “Times less potent than pentamidine” value [1, 4] was “about 2.5 times” and the “Effect on the number of intracellular amastigotes” value ([1]; L. amazonensis, screening concentration 30 μM) was “decreased the number of intracellular amastigotes”. For the same compound, the IC50 ([1]; Leishmania amazonensis, J774.A1, 24 h, read-out: IC50 (concentration required to give 50% death of parasites)) was 84 ± 0.3 µM, the Emax ([1]; Leishmania amazonensis, J774.A1, L. amazonensis intracellular amastigotes, maximum toxicity vs 0.1% DMSO group, read-out: Maximum effect (% ± S.E.M.)) was 57.6 ± 0.2% and the IC50 [2] was greater than 100 µM. The “Serum levels of ALT, AST, creatinine and urea” value ([3]; after end of treatment, i.p.) was “did not significantly interfere” and the Spleen weight ([3]; last day of treatment) was “did not alter animal's spleen weight”.
